The source of these data is ChEMBL document CHEMBL1129337, “Aristeromycin-5'-carboxaldehyde: a potent inhibitor of S-adenosyl-L-homocysteine hydrolase” (J Med Chem, 1996).

The target of assay [1] is T1, Adenosylhomocysteinase (Homo sapiens, UniProt P23526).
Target sequence in this assay (P23526 2-432 limits assumed): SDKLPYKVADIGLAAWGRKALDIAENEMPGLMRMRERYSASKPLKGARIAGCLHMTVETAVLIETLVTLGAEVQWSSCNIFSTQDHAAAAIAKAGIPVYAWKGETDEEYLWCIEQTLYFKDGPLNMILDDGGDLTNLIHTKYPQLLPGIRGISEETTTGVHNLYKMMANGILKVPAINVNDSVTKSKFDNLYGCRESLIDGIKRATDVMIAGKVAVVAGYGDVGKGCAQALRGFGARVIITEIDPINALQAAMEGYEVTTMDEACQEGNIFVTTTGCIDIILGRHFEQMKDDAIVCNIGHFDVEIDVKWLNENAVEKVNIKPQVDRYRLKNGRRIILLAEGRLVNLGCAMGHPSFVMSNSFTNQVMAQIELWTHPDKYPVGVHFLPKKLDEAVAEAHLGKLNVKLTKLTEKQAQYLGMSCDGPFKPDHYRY
Description: Apparent inactivation rate constant (k2) for S-adenosyl-L-homocysteine hydrolase
The target of assay [2] is T1, Adenosylhomocysteinase. Put plainly: Binding affinity towards purified recombinant human placental S-adenosyl-L-homocysteine hydrolase.
Target sequence in this assay (P23526 whole entry): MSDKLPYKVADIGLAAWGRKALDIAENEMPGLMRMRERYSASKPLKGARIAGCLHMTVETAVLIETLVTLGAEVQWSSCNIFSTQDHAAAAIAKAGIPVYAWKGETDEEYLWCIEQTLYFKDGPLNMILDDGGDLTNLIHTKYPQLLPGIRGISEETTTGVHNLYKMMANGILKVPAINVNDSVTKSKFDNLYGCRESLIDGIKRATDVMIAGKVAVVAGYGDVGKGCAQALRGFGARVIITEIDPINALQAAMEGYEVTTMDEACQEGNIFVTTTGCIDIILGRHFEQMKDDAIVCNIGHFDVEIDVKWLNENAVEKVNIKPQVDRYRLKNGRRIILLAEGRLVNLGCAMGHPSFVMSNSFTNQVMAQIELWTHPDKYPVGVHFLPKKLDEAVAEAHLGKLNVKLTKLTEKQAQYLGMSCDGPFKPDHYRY

Each structure is given as a SMILES string. pKi: −log10 of the molar value.

Broadly, the pKi is the negative decadic logarithm of the Ki, by convention in mol/L. Consider `Nc1ncnc2c1ncn2[C@@H]1C[C@H](C=O)[C@@H](O)[C@H]1O`, for which the k2 on Adenosylhomocysteinase [1] is 0.37 min⁻¹. In addition, at Adenosylhomocysteinase [2], the negative-log Ki (pKi) is 5.35.
At Adenosylhomocysteinase [1], `Nc1ncnc2c1ncn2[C@@H]1C[C@@H](C=O)[C@@H](O)[C@H]1O` registered a k2 of 1.2 min⁻¹. For the same compound, on Adenosylhomocysteinase [2], the negative logarithm of the Ki (pKi) is 6.56.
The like results for `Nc1ncnc2c1ncn2[C@@H]1O[C@H](C=O)[C@@H](O)[C@H]1O` were, in that order, 0.22 min⁻¹ and 7.37.
`Nc1ncnc2c1ncn2[C@@H]1O[C@@H](C=O)[C@@H](O)[C@H]1O` yielded a k2 at Adenosylhomocysteinase [1] of 0.65 min⁻¹. Also, on Adenosylhomocysteinase [2], the pKi was 7.41.
